Test results as given in ChEMBL document CHEMBL3797081, “Application of virtual screening to the discovery of novel nicotinamide phosphoribosyltransferase (NAMPT) inhibitors with potential for the treatment of cancer and axonopathies” (Bioorg Med Chem Lett, 2016).
One block for each compound: values may come before it. Active and inactive are the calls of the source. The rule behind the calls is not given here.

How the values were obtained:
[1] = molecular target: Nicotinamide phosphoribosyltransferase (Homo sapiens, UniProt P43490); test: Inhibition of human NAMPT using NAM as substrate assessed as NMN formation preincubated for 5 mins followed by substrate addition measured after 15 mins by fluorometric assay
Chain of Nicotinamide phosphoribosyltransferase (P43490 whole entry): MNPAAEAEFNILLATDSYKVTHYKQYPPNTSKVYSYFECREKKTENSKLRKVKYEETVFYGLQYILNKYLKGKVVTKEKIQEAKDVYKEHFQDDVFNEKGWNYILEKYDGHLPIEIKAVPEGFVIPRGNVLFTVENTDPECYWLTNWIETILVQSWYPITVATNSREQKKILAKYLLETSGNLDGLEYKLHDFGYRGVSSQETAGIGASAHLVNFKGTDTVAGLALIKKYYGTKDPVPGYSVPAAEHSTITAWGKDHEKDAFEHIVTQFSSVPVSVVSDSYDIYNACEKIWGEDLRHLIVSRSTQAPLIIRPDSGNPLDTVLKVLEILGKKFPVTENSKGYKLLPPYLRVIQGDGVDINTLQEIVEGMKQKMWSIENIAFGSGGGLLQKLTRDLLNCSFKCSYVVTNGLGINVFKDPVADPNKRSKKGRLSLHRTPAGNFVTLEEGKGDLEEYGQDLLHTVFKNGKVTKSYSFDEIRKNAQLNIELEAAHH

[2] = molecular target: Nicotinamide phosphoribosyltransferase (Mus musculus) (UniProt Q99KQ4); conditions: Superior cervical ganglion, 100 nM
Chain of Nicotinamide phosphoribosyltransferase (Mus musculus) (Q99KQ4 whole entry, looked up): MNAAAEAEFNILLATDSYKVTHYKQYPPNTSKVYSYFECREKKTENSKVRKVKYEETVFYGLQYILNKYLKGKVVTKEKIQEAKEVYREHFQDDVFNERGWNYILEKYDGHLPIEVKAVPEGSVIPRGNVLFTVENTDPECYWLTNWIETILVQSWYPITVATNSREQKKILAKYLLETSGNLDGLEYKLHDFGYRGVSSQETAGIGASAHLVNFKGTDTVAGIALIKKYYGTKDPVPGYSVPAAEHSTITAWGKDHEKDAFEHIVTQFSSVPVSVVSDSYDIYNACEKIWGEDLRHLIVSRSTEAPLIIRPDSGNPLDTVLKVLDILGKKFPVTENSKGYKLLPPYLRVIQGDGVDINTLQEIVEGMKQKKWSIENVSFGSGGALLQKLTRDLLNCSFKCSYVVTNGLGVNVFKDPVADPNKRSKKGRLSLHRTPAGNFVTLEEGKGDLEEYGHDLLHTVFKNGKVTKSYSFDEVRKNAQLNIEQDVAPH
Description: Inhibition of NAMPT in neonatal mouse superior cervical ganglion explant assessed as delay in degeneration of injured axons at 100 nM treated <10 mins prior to axon transection meaured at 8 to 24 hrs by phase contrast microscopy

[3] = Permeability across human Caco2 cells assessed as drug recovery; type: ADME, cell-based; conditions: Caco-2, read-out: Drug recovery
[4] = molecular target: Nicotinamide phosphoribosyltransferase (Mus musculus) (UniProt Q99KQ4); test: Inhibition of NAMPT in neonatal mouse superior cervical ganglion explant assessed as delay in degeneration of injured axons at 1 uM treated <10 mins prior to axon transection meaured at 8 hrs by phase contrast microscopy; type: tissue-based
[5] = Metabolic stability in human liver microsomes assessed as parent compound remaining at 5 uM measured at 30 mins in presence of NADPH; type: ADME; conditions: read-out: Stability
[6] = Metabolic stability in mouse liver microsomes assessed as parent compound remaining at 5 uM measured at 30 mins in presence of NADPH; type: ADME; conditions: read-out: Stability
[7] = Metabolic stability in mouse liver microsomes assessed as parent compound remaining at 5 uM measured at 30 mins in absence of NADPH; type: ADME; conditions: read-out: Stability
CYP1A2 = molecular target: T1, CYP1A2 (Homo sapiens, UniProt P05177); test: Inhibition of CYP1A2 (unknown origin) at 3 uM relative to control; type: ADME
T1 sequence (P05177 whole entry): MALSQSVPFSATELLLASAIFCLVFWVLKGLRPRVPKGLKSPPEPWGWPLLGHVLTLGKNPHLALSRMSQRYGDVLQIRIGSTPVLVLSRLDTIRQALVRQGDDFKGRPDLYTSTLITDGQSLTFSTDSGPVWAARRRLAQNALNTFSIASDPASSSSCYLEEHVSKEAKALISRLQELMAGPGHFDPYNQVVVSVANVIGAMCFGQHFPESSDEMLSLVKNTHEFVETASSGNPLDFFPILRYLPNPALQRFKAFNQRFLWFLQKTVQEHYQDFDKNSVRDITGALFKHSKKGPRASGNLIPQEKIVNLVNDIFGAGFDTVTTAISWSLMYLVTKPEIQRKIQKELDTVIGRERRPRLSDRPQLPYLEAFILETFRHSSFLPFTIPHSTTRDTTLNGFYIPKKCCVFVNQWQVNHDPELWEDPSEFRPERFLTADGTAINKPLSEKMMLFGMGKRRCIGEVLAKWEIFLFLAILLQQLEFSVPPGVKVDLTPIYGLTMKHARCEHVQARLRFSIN

CYP3A4 = CYP3A4 (Homo sapiens, UniProt P08684); test: Inhibition of CYP3A4 (unknown origin) at 3 uM relative to control; type: ADME
Chain of CYP3A4 (P08684 whole entry): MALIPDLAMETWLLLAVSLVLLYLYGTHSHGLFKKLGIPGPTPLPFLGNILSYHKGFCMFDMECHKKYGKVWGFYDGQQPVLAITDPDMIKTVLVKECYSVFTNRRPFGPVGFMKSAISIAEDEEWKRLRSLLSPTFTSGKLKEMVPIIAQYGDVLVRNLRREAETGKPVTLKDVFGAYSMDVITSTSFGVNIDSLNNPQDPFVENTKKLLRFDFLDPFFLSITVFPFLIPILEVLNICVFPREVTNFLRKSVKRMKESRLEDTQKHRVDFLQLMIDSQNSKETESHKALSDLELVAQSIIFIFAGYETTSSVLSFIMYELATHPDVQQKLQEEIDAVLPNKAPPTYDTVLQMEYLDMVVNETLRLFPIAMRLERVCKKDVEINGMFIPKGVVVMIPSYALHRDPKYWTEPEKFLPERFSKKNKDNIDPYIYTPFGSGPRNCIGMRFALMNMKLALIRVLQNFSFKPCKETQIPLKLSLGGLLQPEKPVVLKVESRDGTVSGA

CYP2C9 = CYP2C9 (Homo sapiens, UniProt P11712); test: Inhibition of CYP2C9 (unknown origin) at 3 uM relative to control; type: ADME
Chain of CYP2C9 (P11712 whole entry): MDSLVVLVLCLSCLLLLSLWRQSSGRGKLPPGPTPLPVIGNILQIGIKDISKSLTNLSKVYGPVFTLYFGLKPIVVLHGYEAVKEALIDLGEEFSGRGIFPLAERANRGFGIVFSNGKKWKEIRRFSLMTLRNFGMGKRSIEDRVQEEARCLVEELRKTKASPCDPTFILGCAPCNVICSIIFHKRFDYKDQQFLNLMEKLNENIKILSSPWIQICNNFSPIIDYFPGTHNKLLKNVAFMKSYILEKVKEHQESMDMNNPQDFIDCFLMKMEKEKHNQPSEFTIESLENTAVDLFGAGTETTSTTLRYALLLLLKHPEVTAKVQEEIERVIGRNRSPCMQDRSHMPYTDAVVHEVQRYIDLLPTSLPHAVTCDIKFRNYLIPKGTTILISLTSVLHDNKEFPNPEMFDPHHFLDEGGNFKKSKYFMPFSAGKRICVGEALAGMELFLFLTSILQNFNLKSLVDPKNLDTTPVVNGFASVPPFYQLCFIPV

CYP2D6 = CYP2D6 (Homo sapiens, UniProt P10635); test: Inhibition of CYP2D6 (unknown origin) at 3 uM relative to control; type: ADME
Chain of CYP2D6 (P10635 whole entry): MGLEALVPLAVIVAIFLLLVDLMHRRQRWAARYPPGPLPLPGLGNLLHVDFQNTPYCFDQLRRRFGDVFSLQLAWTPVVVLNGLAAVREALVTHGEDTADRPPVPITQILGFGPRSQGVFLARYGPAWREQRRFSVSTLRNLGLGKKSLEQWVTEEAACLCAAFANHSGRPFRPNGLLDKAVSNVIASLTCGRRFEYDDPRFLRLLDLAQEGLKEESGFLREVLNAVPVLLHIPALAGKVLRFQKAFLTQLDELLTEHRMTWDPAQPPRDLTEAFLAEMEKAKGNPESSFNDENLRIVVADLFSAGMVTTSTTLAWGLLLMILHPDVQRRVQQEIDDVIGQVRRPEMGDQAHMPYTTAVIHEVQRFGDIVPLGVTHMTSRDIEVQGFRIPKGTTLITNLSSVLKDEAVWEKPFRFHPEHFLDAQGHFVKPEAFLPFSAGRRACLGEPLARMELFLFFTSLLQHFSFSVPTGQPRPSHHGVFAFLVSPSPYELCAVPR

[8] = Plasma protein binding in human; type: ADME, cell-free; conditions: read-out: PPB (converted)
[9] = Metabolic stability in human liver microsomes assessed as parent compound remaining at 5 uM measured at 30 mins in absence of NADPH; type: ADME; conditions: read-out: Stability

IC50 [1]: 780 nM
Compound: O=C(/C=C/c1cccnc1)N1CCN(Cc2ccc(OC(F)(F)F)cc2)CC1

IC50 [1]: 320 nM
Compound: O=C(NCc1cccnc1)c1cc2n(n1)CCN(Cc1ccc(Cl)c(Cl)c1)C2=O

inhibition [2]: Active
Compound: O=C(/C=C/c1cccnc1)NCCCCC1CCN(C(=O)c2ccccc2)CC1

IC50 [1]: 3800 nM
Compound: O=C(c1cc(-c2cccnc2)n[nH]1)N1CCN(C(=O)c2cc3ccccc3[nH]2)CC1

recovery [3]: < 70% | remaining at 0.5 h, 5 µM [5]: 63% | IC50 [1]: 243 nM | remaining at 0.5 h, 5 µM [6]: 19% | remaining at 0.5 h, 5 µM [7]: 96% | inhibition at 3 µM (CYP1A2): 23% | inhibition at 3 µM (CYP3A4): 20% | inhibition at 3 µM (CYP2C9): 43% | inhibition at 3 µM (CYP2D6): 3% | fraction unbound [8]: 0.004 | remaining at 0.5 h, 5 µM [9]: 104%
Compound: O=C(c1cc(-c2cccnc2)[nH]n1)N1CCN(C(c2ccccc2)c2ccccc2)CC1
inhibition [4]: Active

IC50 [1]: 670 nM
Compound: O=C(/C=C/c1cccnc1)Nc1ccc(-c2nnc3n2CCCCC3)cc1

IC50 [1]: 5000 nM
Compound: O=C(NCCOc1ccc2ccccc2c1)NCc1cccnc1

IC50 [1]: 3200 nM
Compound: O=C(/C=C/c1cccnc1)N1CCN(Cc2csc(-c3ccc(F)cc3)n2)CC1

IC50 [1]: 940 nM
Compound: CC1(C)Cc2cccc(OCCNC(=O)/C=C/c3cccnc3)c2O1

recovery [3]: < 70% | remaining at 0.5 h, 5 µM [5]: 7% | IC50 [1]: 41.8 nM | remaining at 0.5 h, 5 µM [6]: 43% | remaining at 0.5 h, 5 µM [7]: 87% | inhibition at 3 µM (CYP1A2): 22% | inhibition at 3 µM (CYP3A4): 63% | inhibition at 3 µM (CYP2C9): 31% | inhibition at 3 µM (CYP2D6): 1% | fraction unbound [8]: 0.008 | remaining at 0.5 h, 5 µM [9]: 96%
Compound: CCCCc1ccc(NC(=O)C2CC2c2cccnc2)cc1 (stereo not drawn)

IC50 [1]: 1900 nM
Compound: O=C(COc1ccc(S(=O)(=O)Nc2ccc(Cl)cc2)cc1)NCc1cccnc1

IC50 [1]: 220 nM
Compound: O=C(/C=C/c1cccnc1)Nc1ccc(C(=O)NCC(F)(F)F)cc1
